Data taken from US8338565B2, “Macrocyclic compounds for inhibition of tumor necrosis factor alpha” (Ensemble Therapeutics Corporation, priority 2008, dated 2012).
Numbered stars: 1 amine (or outer) side, 2 acyl side, 3 side chain; on linkers, the order of the positions; unused ones are H or OH. Bridge positions count the residues as written; N and C are the ends. Square brackets hold non-standard residues; d marks the D form. Peptide text beside a SMILES is read from it. Tartaroyl(2R,3R-(OAc)2) = CC(=O)O[C@@H](C(=O)[*:1])[C@@H](OC(C)=O)C(=O)[*:2]; Phe(4-CF3) = N[C@@H](Cc1ccc(C(F)(F)F)cc1)C(=O)O; Phe(4-COOH) = N[C@@H](Cc1ccc(C(=O)O)cc1)C(=O)O; Bip = N[C@@H](Cc1ccc(-c2ccccc2)cc1)C(=O)O; dPhe(4-NH2) = Nc1ccc(C[C@@H](N)C(=O)O)cc1; Phe(4-Br) = N[C@@H](Cc1ccc(Br)cc1)C(=O)O; Phe(4-CN) = N#Cc1ccc(C[C@H](N)C(=O)O)cc1; dPhe(2-CN) = N#Cc1ccccc1C[C@@H](N)C(=O)O; dPhe(4-Br) = N[C@H](Cc1ccc(Br)cc1)C(=O)O; Phe(4-NH2) = Nc1ccc(C[C@H](N)C(=O)O)cc1; dAla(2-furyl) = N[C@H](Cc1ccco1)C(=O)O; d(hPhe) = N[C@H](CCc1ccccc1)C(=O)O; Igl = N[C@H](C(=O)O)C1Cc2ccccc2C1; 2Thi = N[C@@H](Cc1cccs1)C(=O)O; d2Thi = N[C@H](Cc1cccs1)C(=O)O; Suc = O=C(CCC(=O)[*:2])[*:1]; Nphe = O=C(O)CNCc1ccccc1; βAla = NCCC(=O)O

Target: T1, TNFα / TNFα receptor (TNFα R1/Fc) (Homo sapiens, UniProt P01375)
T1 construct: purchased R&D Systems
T1 sequence (P01375 77-233 limits assumed, species assumed): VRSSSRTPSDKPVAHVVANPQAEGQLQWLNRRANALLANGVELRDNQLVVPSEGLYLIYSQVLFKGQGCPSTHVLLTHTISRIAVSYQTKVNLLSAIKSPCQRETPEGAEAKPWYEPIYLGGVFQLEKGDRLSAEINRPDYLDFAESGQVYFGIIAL
Test: Inhibition of binding of TNFα to the TNFα receptor (plate ELISA competition)
Conditions: Activity (IC50, inhibition of TNFα binding to TNFα R1/Fc), Table 2
Procedure, shortened: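 Compound dilutions were preincubated 30 min at RT with 8.33 nM TNFα R1/Fc in PBST with 2% DMSO, then added to wells coated with 15 nM TNFα for 30 min. Bound receptor was detected with HRP anti-human Fc and TMB, read as A450.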

`O=C1COc2ccc(cc2)C[C@@H](C(=O)NCS(=O)(=O)O)NC(=O)[C@H](Cc2ccc(O)cc2)NC(=O)[C@@H](Cc2ccc(-c3ccccc3)cc2)NC(=O)[C@H](Cc2cccs2)N1` [Compound 566] and `O=C1COc2ccc(cc2)C[C@@H](C(=O)N2CCC[C@@H]2C(=O)O)NC(=O)[C@@H](CCc2ccccc2)NC(=O)[C@H](Cc2ccc(-c3ccccc3)cc2)NC(=O)[C@@H](Cc2cccs2)N1` [Compound 303] fall in the same range of IC50: 10 to 30 µM for the first, 10 to 30 µM for the second.

For `O=C1COc2ccc(cc2)C[C@@H](C(=O)N[C@@H](CO)C(=O)O)NC(=O)[C@H](CCc2ccccc2)NC(=O)[C@@H](Cc2ccc(-c3ccccc3)cc2)NC(=O)[C@H](Cc2ccncc2)N1` [Compound 556], the IC50 was less than 10 µM.

Same assay, conditions: Table 2; read-out: Activity (IC50, inhibition of TNFα binding to TNFα R1/Fc)

First: O=C(O)CCNC(=O)[C@@H]1Cc2ccc(cc2)NC(=O)[C@H](O)[C@@H](O)C(=O)N[C@H](Cc2cccs2)C(=O)N[C@@H](Cc2ccc(-c3ccccc3)cc2)C(=O)N[C@H](CCc2ccccc2)C(=O)N1 [Compound 401]
Second: O=C1N[C@@H](C(=O)O)Cc2ccc(cc2)NC(=O)[C@H](O)[C@@H](O)C(=O)N[C@H](Cc2cccs2)C(=O)N[C@@H](Cc2ccc(-c3ccccc3)cc2)C(=O)N[C@H]1Cc1ccccc1 [Compound 275]
The IC50 of the first is lower: less than 10 µM for the first, greater than 100 µM for the second.

`O=C1CCC(=O)N[C@H](Cc2cccs2)C(=O)N[C@@H](C2Cc3ccccc3C2)C(=O)N[C@H](Cc2ccccc2)C(=O)N[C@H](C(=O)O)Cc2ccc(cc2)N1` [Compound 99] ([d2Thi][Igl][dF][Phe(4-NH2)]-OH; linker N-4 via Suc) and `O=C1CCC(=O)N[C@H](Cc2cccs2)C(=O)N[C@@H](Cc2ccc(O)cc2)C(=O)N[C@H](Cc2ccccc2)C(=O)N[C@H](C(=O)O)Cc2ccc(cc2)N1` [Compound 87] ([d2Thi]Y[dF][Phe(4-NH2)]-OH; linker N-4 via Suc) cannot be ordered by IC50: greater than 100 µM for the first, greater than 100 µM for the second.

First: O=C(O)[C@@H]1Cc2ccc(cc2)NC(=O)[C@H](O)[C@@H](O)C(=O)N[C@H](Cc2cccs2)C(=O)N[C@@H](Cc2ccc(Cl)cc2Cl)C(=O)N[C@H](Cc2ccccc2)C(=O)N1 [Compound 189]
Second: O=C(O)[C@@H]1Cc2ccc(cc2)NC(=O)[C@H](O)[C@@H](O)C(=O)N[C@H](Cc2cccs2)C(=O)N[C@@H](Cc2ccc(-c3ccccc3)cc2)C(=O)N[C@H](Cc2ccccc2Cl)C(=O)N1 [Compound 286]
The IC50 of the first is higher: greater than 100 µM for the first, 10 to 30 µM for the second.

`N#Cc1ccc(C[C@@H]2NC(=O)[C@@H](Cc3cccs3)NC(=O)CCC(=O)Nc3ccc(cc3)C[C@@H](C(=O)O)NC(=O)[C@@H](Cc3ccccc3)NC2=O)cc1` [Compound 94] ([d2Thi][Phe(4-CN)][dF][Phe(4-NH2)]-OH; linker N-4 via Suc) and `O=C1CCC(=O)N[C@@H](Cc2cccs2)C(=O)N[C@@H](Cc2ccc(-c3ccccc3)cc2)C(=O)N[C@@H](Cc2ccccc2)C(=O)N[C@H](C(=O)O)Cc2ccc(cc2)N1` [Compound 495] ([2Thi][Bip]F[Phe(4-NH2)]-OH; linker N-4 via Suc) cannot be ordered by IC50: greater than 100 µM for the first, greater than 100 µM for the second.

`C[C@H]1NC(=O)CCC(=O)Nc2ccc(cc2)C[C@@H](C(=O)O)NC(=O)[C@@H](Cc2ccccc2)NC(=O)[C@H](Cc2ccc(-c3ccccc3)cc2)NC1=O` [Compound 46] ([dA][Bip][dF][Phe(4-NH2)]-OH; linker N-4 via Suc) and `O=C1CCC(=O)N[C@H](Cc2ccc(O)cc2)C(=O)N[C@@H](Cc2ccc(-c3ccccc3)cc2)C(=O)N[C@H](Cc2ccccc2)C(=O)N[C@H](C(=O)O)Cc2ccc(cc2)N1` [Compound 121] ([dY][Bip][dF][Phe(4-NH2)]-OH; linker N-4 via Suc) cannot be ordered by IC50: greater than 100 µM for the first, greater than 100 µM for the second.

First: O=C1COc2ccc(cc2)C[C@@H](C(=O)O)NC(=O)[C@H](Cc2ccccc2)NC(=O)[C@@H](Cc2cccc(Cl)c2)NC(=O)[C@H](Cc2cccs2)N1 [Compound 356]
Second: COc1ccc(C[C@@H]2NC(=O)[C@@H](Cc3ccc(-c4ccccc4)cc3)NC(=O)[C@H](Cc3cccs3)NC(=O)COc3ccc(cc3)C[C@@H](C(=O)O)NC2=O)cc1 [Compound 630]
The IC50 of the first is higher: greater than 100 µM for the first, 10 to 30 µM for the second.

`O=C1COc2ccc(cc2)C[C@@H](C(=O)O)NC(=O)[C@H](Cc2ccc(Cl)cc2Cl)NC(=O)[C@@H](Cc2ccc(-c3ccccc3)cc2)NC(=O)[C@H](Cc2ccncc2)N1` [Compound 650] and `O=C(O)CCCNC(=O)[C@@H]1Cc2ccc(cc2)OCC(=O)N[C@@H](Cc2ccncc2)C(=O)N[C@H](Cc2ccc(-c3ccccc3)cc2)C(=O)N[C@@H](Cc2ccccc2F)C(=O)N1` [Compound 719] cannot be ordered by IC50: less than 10 µM for the first, less than 10 µM for the second.

Compared with `O=C(OCc1ccccc1)c1ccc(-c2ccc(C[C@@H]3NC(=O)[C@@H](Cc4cccs4)NC(=O)[C@H](O)[C@@H](O)C(=O)Nc4ccc(cc4)C[C@@H](C(=O)O)NC(=O)[C@@H](Cc4ccccc4)NC3=O)cc2)cc1` [Compound 335], `O=C1N[C@H](Cc2ccccc2)C(=O)N[C@@H](C(=O)O)Cc2ccc(cc2)NC(=O)[C@H](O)[C@@H](O)C(=O)N[C@H](Cc2cccs2)C(=O)N[C@H]1Cc1ccc(-c2ccccc2)cc1` [Compound 184] is higher in IC50: 10 to 30 µM for the first, greater than 100 µM for the second.

First: O=C(O)C[C@H](NC(=O)[C@@H]1Cc2ccc(cc2)OCC(=O)N[C@@H](Cc2cccs2)C(=O)N[C@@H](Cc2ccc(-c3ccccc3)cc2)C(=O)N[C@@H](Cc2ccccc2)C(=O)N1)C(=O)O [Compound 345]
Second: O=C1COc2ccc(cc2)C[C@@H](C(=O)O)NC(=O)[C@@H](Cc2ccc(-c3ccccc3)cc2)NC(=O)[C@H](Cc2ccc(-c3ccccc3)cc2)NC(=O)[C@@H](Cc2cccs2)N1 [Compound 530]
The IC50 of the first is lower: 30 to 100 µM for the first, greater than 100 µM for the second.

`O=C(O)[C@@H]1Cc2ccc(cc2)NC(=O)[C@@H]2CCCC[C@H]2C(=O)N[C@H](Cc2cccs2)C(=O)N[C@@H](Cc2ccc(-c3ccccc3)cc2)C(=O)N[C@H](Cc2ccccc2)C(=O)N1` [Compound 9] and `O=C(O)[C@H](Cc1ccccc1)NC(=O)[C@H]1Cc2ccc(cc2)NC(=O)[C@H](O)[C@@H](O)C(=O)N[C@H](Cc2cccs2)C(=O)N[C@@H](Cc2ccc(-c3ccccc3)cc2)C(=O)N[C@H](Cc2ccccc2)C(=O)N1` [Compound 430] fall in the same range of IC50: 10 to 30 µM for the first, 10 to 30 µM for the second.

`O=C1CCC(=O)N[C@H](Cc2cccs2)C(=O)N(Cc2ccccc2)CC(=O)N[C@H](Cc2ccccc2)C(=O)N[C@H](C(=O)O)Cc2ccc(cc2)N1` [Compound 101] ([d2Thi][Nphe][dF][Phe(4-NH2)]-OH; linker N-4 via Suc) and `N#Cc1ccccc1C[C@H]1NC(=O)[C@H](Cc2ccc(C(F)(F)F)cc2)NC(=O)[C@@H](CCc2ccccc2)NC(=O)CCC(=O)Nc2ccc(cc2)C[C@@H](C(=O)O)NC1=O` [Compound 225] ([d(hPhe)][Phe(4-CF3)][dPhe(2-CN)][Phe(4-NH2)]-OH; linker N-4 via Suc) cannot be ordered by IC50: greater than 100 µM for the first, greater than 100 µM for the second.

`O=C(O)CN(Cc1ccccc1)C(=O)[C@@H]1Cc2ccc(cc2)NC(=O)CCC(=O)N[C@H](CCc2ccccc2)C(=O)N[C@@H](Cc2ccc(-c3ccccc3)cc2)C(=O)N[C@H](Cc2ccccc2)C(=O)N1` [Compound 504] ([d(hPhe)][Bip][dF][Phe(4-NH2)][Nphe]-OH; linker N-4 via Suc) and `O=C1CCNC(=O)c2ccc(cc2)C[C@@H](C(=O)N[C@@H](Cc2ccccc2)C(=O)O)NC(=O)[C@@H](Cc2ccccc2)NC(=O)[C@H](Cc2ccc(-c3ccccc3)cc2)NC(=O)[C@@H](CCc2ccccc2)N1` [Compound 422] ([βAla][d(hPhe)][Bip][dF][Phe(4-COOH)]F-OH; lactam N-5) cannot be ordered by IC50: less than 10 µM for the first, less than 10 µM for the second.

`C[C@@H](NC(=O)[C@@H]1Cc2ccc(cc2)OCC(=O)N[C@@H](Cc2ccncc2)C(=O)N[C@H](Cc2ccc(-c3ccccc3)cc2)C(=O)N[C@@H](CCc2ccccc2)C(=O)N1)C(=O)O` [Compound 557] and `O=C1COc2ccc(cc2)C[C@@H](C(=O)N[C@@H](CO)C(=O)O)NC(=O)[C@H](CCc2ccccc2)NC(=O)[C@@H](Cc2ccc(-c3ccccc3)cc2)NC(=O)[C@H](Cc2ccc(-c3ccncc3)cc2)N1` [Compound 583] cannot be ordered by IC50: less than 10 µM for the first, less than 10 µM for the second.

Compared with `CC(C)(C)OC(=O)CC[C@@H]1NC(=O)[C@H](Cc2ccc(-c3ccccc3)cc2)NC(=O)[C@H](Cc2cccs2)NC(=O)COc2ccc(cc2)C[C@@H](C(=O)O)NC1=O` [Compound 259], `O=C1COc2ccc(cc2)C[C@H](C(=O)O)NC(=O)[C@H](CCc2ccccc2)NC(=O)[C@@H](Cc2ccc(-c3ccccc3)cc2)NC(=O)[C@H](Cc2c[nH]c3ccccc23)N1` [Compound 730] is lower in IC50: 30 to 100 µM for the first, less than 10 µM for the second. The second is the more potent here.

First: O=C1COc2ccc(cc2)C[C@@H](C(=O)N[C@@H](CCc2ccccc2)C(=O)O)NC(=O)[C@H](CCc2ccccc2)NC(=O)[C@@H](Cc2ccc(-c3ccccc3)cc2)NC(=O)[C@H](Cc2ccc(-c3ccncc3)cc2)N1 [Compound 623]
Second: O=C1COc2ccc(cc2)C[C@@H](C(=O)O)NC(=O)[C@H](Cc2ccccc2)NC(=O)[C@H](Cc2ccc(-c3ccccc3)cc2)NC(=O)[C@H](Cc2ccc(OCc3ccccc3)cc2)N1 [Compound 491]
The IC50 of the first is lower: less than 10 µM for the first, greater than 100 µM for the second. The first is the more potent here.

First: COc1ccc(C[C@H]2NC(=O)CCC(=O)Nc3ccc(cc3)C[C@@H](C(=O)O)NC(=O)[C@@H](Cc3ccccc3)NC(=O)[C@H](Cc3ccc(C(F)(F)F)cc3)NC2=O)cc1 [Compound 162] ([dY](Me)[Phe(4-CF3)][dF][Phe(4-NH2)]-OH; linker N-4 via Suc)
Second: CC(=O)O[C@H]1C(=O)Nc2ccc(cc2)C[C@H](C(=O)O)NC(=O)[C@@H](Cc2ccco2)NC(=O)[C@H](Cc2ccc(Br)cc2)NC(=O)[C@@H](Cc2ccccc2)NC(=O)[C@@H]1OC(C)=O [Compound 160] ([dF][Phe(4-Br)][dAla(2-furyl)][dPhe(4-NH2)]-OH; linker N-4 via Tartaroyl(2R,3R-(OAc)2))
The IC50 of the first is higher: greater than 100 µM for the first, 30 to 100 µM for the second. The second is the more potent here.

Compared with `O=C1COc2ccc(cc2)C[C@@H](C(=O)O)NC(=O)[C@H](CCc2ccccc2)NC(=O)[C@@H](Cc2ccc(-c3ccccc3)cc2)NC(=O)[C@H](Cc2ccc3ccccc3c2)N1` [Compound 695], `CC(=O)O[C@H]1C(=O)Nc2ccc(cc2)C[C@@H](C(=O)N[C@@H](Cc2ccccc2)C(=O)O)NC(=O)[C@H](Cc2ccccc2)NC(=O)[C@@H](Cc2ccc(Br)cc2)NC(=O)[C@H](Cc2cccs2)NC(=O)[C@@H]1OC(C)=O` [Compound 418] ([2Thi][dPhe(4-Br)]F[Phe(4-NH2)]F-OH; linker N-4 via Tartaroyl(2R,3R-(OAc)2)) is higher in IC50: less than 10 µM for the first, greater than 100 µM for the second. The first is the more potent here.
